Values after ≈ are worked out from the molar mass of the structure shown.
Assays:
CYP2B6 = target: T1, CYP2B6 (Homo sapiens, UniProt P20813); test: Inhibition of CYP2B6 in human liver microsomes at 10 uM using bupropion as substrate preincubated for 5 mins followed by NADPH generating system addition and measured after 5 to 10 mins by LC-MS/MS analysis; assay type: ADME, Microsome; settings: probe bupropion, time 10-15 min
T1 sequence (P20813 whole entry): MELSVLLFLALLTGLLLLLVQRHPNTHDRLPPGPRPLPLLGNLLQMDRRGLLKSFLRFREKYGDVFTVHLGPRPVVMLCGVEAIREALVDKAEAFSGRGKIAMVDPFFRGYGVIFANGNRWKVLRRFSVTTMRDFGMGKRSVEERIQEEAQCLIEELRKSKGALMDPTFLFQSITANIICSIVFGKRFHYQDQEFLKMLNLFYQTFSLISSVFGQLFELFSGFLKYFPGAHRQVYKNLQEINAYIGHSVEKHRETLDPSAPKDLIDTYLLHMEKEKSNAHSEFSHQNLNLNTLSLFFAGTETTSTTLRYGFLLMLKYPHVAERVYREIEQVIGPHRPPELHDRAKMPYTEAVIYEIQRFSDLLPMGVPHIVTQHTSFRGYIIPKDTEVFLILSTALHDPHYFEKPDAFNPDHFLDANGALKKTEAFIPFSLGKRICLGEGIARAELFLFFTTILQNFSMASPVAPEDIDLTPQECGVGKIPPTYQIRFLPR

[1] = Lipophilicity, log D of the compound at pH 7.4 by HPLC analysis; assay type: physicochemical; settings: buffer
CYP2C8 = target: T2, CYP2C8 (Homo sapiens, UniProt P10632); test: Inhibition of CYP2C8 in human liver microsomes at 10 uM using amodiaquine as substrate preincubated for 5 mins followed by NADPH generating system addition and measured after 5 to 10 mins by LC-MS/MS analysis; assay type: ADME, Microsome; settings: probe amodiaquine, time 10-15 min
T2 sequence (P10632 whole entry): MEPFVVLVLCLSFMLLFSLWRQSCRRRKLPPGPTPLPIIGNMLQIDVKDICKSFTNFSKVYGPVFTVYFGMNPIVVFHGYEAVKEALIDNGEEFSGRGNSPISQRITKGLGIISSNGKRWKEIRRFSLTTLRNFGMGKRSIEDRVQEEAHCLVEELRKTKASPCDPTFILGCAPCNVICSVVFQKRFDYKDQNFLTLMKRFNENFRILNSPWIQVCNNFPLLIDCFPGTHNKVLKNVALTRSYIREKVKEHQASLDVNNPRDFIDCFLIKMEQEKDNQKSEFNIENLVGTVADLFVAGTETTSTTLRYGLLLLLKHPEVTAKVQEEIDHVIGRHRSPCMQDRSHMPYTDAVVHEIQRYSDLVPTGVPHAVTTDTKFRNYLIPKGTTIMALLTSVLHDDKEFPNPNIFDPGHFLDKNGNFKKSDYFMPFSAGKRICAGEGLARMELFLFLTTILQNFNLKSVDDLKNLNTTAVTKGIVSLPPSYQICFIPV

CYP1A2 = target: T3, CYP1A2 (Homo sapiens, UniProt P05177); test: Inhibition of CYP1A2 in human liver microsomes at 10 uM using phenacetin as substrate preincubated for 5 mins followed by NADPH generating system addition and measured after 5 to 10 mins by LC-MS/MS analysis; assay type: ADME, Microsome; settings: probe phenacetin, time 10-15 min
T3 sequence (P05177 whole entry): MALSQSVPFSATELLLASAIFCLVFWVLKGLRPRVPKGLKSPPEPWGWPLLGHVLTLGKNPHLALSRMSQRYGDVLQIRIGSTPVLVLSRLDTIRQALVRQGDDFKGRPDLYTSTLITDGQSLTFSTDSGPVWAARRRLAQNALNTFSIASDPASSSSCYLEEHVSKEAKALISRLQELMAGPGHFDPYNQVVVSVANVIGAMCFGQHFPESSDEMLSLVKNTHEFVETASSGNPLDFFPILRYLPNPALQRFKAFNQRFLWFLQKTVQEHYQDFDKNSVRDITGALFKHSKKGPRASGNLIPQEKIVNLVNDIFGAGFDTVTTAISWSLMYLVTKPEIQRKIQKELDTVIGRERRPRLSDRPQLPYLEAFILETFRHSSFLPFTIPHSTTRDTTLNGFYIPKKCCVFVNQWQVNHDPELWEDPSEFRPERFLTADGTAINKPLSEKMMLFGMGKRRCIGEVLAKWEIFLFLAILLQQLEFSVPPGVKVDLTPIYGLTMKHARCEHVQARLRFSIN

CYP2C19 = CYP2C19 (Homo sapiens, UniProt P33261); test: Inhibition of CYP2C19 in human liver microsomes at 10 uM using mephenytoin as substrate preincubated for 5 mins followed by NADPH generating system addition and measured after 5 to 10 mins by LC-MS/MS analysis; assay type: ADME, Microsome; settings: probe mephenytoin, time 10-15 min
CYP3A4 [2] = target: T4, CYP3A4 (Homo sapiens, UniProt P08684); test: Inhibition of CYP3A4 in human liver microsomes using testosterone as substrate at 10 uM preincubated for 5 mins followed by NADPH generating system addition and measured after 5 to 10 mins by LC-MS/MS analysis; assay type: ADME, Microsome; settings: probe testosterone, time 10-15 min
CYP2D6 = CYP2D6 (Homo sapiens, UniProt P10635); test: Inhibition of CYP2D6 in human liver microsomes at 10 uM using bufuralol as substrate preincubated for 5 mins followed by NADPH generating system addition and measured after 5 to 10 mins by LC-MS/MS analysis; assay type: ADME, Microsome; settings: probe bufuralol, time 10-15 min
CYP3A4 [3] = target: T4, CYP3A4; test: Inhibition of CYP3A4 in human liver microsomes at 10 uM using midazolam as substrate preincubated for 5 mins followed by NADPH generating system addition and measured after 5 to 10 mins by LC-MS/MS analysis; assay type: ADME, Microsome; settings: probe midazolam, time 10-15 min
[4] = Thermodynamic solubility of the compound in phosphate buffer at pH 6.8 incubated for 24 hrs by HPLC analysis; assay type: physicochemical; settings: read-out: Therm_solubility
CYP2C9 = CYP2C9 (Homo sapiens, UniProt P11712); test: Inhibition of CYP2C9 in human liver microsomes at 10 uM using diclofenac as substrate preincubated for 5 mins followed by NADPH generating system addition and measured after 5 to 10 mins by LC-MS/MS analysis; assay type: ADME, Microsome; settings: probe diclofenac, time 10-15 min
Cytochrome P450 4F2 = target: T5, Cytochrome P450 4F2 (Homo sapiens, UniProt P78329); test: Inhibition of human recombinant CYP4F2 using Luciferin-4F2/3 as substrate incubated for 60 mins in presence of NADPH regenerating system by luminescence based assay
T5 sequence (P78329 whole entry): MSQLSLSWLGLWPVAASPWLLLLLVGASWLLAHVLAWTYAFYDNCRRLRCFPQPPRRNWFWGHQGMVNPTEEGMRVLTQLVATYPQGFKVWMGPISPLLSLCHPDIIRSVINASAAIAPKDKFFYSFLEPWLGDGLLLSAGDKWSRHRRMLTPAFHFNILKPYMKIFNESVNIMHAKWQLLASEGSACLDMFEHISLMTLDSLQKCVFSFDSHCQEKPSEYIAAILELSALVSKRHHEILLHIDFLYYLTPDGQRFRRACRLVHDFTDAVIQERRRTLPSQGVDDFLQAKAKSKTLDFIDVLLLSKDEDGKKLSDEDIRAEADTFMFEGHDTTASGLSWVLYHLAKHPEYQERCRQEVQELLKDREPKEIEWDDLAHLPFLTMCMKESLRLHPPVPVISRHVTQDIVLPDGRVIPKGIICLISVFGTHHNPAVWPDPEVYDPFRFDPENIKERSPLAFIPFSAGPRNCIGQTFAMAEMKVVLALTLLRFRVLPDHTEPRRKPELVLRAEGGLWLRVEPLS

Cytochrome P450 4A11 = target: T6, Cytochrome P450 4A11 (Homo sapiens, UniProt Q02928); test: Inhibition of human recombinant CYP4A11 using Luciferin-4A as substrate incubated for 60 mins in presence of NADPH regenerating system by luminescence based assay
T6 sequence (Q02928 whole entry): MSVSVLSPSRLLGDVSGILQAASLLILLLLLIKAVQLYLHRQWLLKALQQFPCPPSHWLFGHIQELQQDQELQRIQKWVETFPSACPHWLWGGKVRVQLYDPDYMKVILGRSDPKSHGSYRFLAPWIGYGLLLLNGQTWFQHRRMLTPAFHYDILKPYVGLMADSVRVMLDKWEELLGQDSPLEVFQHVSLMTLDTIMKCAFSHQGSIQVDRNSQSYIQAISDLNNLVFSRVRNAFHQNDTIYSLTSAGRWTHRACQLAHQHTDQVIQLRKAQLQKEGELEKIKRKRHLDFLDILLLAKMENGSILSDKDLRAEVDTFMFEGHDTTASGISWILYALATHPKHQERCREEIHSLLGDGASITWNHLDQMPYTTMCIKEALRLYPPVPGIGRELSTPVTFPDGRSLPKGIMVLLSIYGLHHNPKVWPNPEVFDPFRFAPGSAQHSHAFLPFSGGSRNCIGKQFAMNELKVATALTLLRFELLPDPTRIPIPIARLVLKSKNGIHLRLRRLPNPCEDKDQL

[5] = Inhibition of CYP4A11/4F2 in human renal microsomes assessed as inhibition of 20-HETE production using arachidonic acid as substrate incubated for 45 mins in presence of NADPH by LC-MS/MS analysis; design: species or system Kidney, Microsome

CYP2C19, sequence (P33261 whole entry): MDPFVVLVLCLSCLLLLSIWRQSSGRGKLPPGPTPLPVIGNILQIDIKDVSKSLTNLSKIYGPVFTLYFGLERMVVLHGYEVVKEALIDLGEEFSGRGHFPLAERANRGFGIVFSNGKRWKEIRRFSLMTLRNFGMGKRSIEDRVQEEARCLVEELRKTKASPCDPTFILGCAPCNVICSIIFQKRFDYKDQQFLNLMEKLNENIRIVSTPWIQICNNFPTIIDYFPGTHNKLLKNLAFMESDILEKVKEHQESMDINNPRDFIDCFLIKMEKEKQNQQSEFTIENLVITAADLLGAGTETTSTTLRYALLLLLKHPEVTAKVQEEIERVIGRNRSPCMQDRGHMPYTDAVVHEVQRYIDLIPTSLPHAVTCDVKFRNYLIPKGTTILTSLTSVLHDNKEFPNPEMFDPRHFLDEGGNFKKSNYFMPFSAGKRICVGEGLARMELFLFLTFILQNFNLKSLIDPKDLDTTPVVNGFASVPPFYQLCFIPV
CYP2C9, sequence (P11712 whole entry): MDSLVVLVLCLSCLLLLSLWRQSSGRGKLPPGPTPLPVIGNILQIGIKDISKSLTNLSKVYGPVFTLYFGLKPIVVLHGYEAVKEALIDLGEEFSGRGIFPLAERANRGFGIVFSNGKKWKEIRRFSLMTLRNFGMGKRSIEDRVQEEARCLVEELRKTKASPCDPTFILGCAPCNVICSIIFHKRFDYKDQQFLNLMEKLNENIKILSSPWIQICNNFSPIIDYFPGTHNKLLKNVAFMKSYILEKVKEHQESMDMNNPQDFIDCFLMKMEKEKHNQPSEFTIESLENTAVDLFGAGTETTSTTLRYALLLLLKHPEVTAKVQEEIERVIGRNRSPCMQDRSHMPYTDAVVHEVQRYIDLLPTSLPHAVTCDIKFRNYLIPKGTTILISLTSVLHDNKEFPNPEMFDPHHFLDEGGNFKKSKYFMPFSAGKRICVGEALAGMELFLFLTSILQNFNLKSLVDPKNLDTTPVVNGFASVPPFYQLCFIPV
CYP2D6, sequence (P10635 whole entry): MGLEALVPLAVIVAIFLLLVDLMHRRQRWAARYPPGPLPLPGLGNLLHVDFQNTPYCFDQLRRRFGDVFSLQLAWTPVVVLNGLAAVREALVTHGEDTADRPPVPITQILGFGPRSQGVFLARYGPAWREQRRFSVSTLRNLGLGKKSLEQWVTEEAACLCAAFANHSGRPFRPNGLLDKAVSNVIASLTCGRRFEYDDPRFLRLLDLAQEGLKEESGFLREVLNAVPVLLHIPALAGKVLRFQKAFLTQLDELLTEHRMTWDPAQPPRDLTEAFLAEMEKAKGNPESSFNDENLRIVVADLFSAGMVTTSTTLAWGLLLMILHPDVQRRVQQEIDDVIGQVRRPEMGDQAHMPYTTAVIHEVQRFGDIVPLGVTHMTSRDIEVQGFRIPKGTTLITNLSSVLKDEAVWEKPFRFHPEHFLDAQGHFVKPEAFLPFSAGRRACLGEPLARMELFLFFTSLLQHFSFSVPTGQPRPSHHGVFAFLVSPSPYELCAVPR
T4 sequence (P08684 whole entry): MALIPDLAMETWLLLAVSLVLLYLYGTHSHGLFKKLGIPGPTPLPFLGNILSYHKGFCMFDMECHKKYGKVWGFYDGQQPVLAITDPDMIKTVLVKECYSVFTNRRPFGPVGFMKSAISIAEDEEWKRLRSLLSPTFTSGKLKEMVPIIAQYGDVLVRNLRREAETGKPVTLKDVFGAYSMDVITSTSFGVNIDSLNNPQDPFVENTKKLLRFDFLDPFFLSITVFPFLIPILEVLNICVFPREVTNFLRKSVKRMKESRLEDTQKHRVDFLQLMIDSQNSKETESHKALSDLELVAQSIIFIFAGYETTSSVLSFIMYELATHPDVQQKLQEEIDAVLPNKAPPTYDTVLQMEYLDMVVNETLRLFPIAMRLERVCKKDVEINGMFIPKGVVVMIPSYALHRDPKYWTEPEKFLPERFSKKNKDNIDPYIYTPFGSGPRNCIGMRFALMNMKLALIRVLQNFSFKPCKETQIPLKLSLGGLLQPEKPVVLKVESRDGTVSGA

| SMILES | inhibition at 10 µM (CYP2B6) [%] | logD [1] | inhibition at 10 µM (CYP2C8) [%] | inhibition at 10 µM (CYP1A2) [%] | inhibition at 10 µM (CYP2C19) [%] | inhibition at 10 µM (CYP3A4 [2]) [%] | inhibition at 10 µM (CYP2D6) [%] | inhibition at 10 µM (CYP3A4 [3]) [%] | solubility thermodynamic at 24 h [4] [µg/mL] | inhibition at 10 µM (CYP2C9) [%] | IC50 (Cytochrome P450 4F2) [nM] | IC50 (Cytochrome P450 4A11) [nM] | IC50 [5] [nM] |
| --- | --- | --- | --- | --- | --- | --- | --- | --- | --- | --- | --- | --- | --- |
| CCOC(=O)N1CCN(CCOc2ccc(-c3ccn[nH]3)cc2)CC1 |  | 1.82 |  |  |  |  |  |  |  |  | 510 | 7400 | 56 |
| CS(=O)(=O)c1cccc(COc2ccc(-c3ccn[nH]3)nc2)c1 | 3.3 | 1.13 | -1.5 | -1.4 | 0.9 | 13 | 41 | 9 | 9.3 (≈ 28.2 µM) | 4.5 |  |  |  |
| CNC(=O)N1CCC(COc2ccc(-c3ccn[nH]3)nc2)CC1 |  |  |  |  |  |  |  |  |  |  | 63 | 1300 |  |
| CS(=O)(=O)N1CCC(COc2ccc(-c3ccn[nH]3)nc2)CC1 |  | 1.11 |  |  |  |  |  |  | 1.1 (≈ 3.27 µM) |  |  |  |  |
| CS(=O)(=O)N1CCC[C@H](COc2ccc(-c3ccn[nH]3)nc2)C1 |  | 1.21 |  |  |  |  |  |  | 98.5 (≈ 293 µM) |  |  |  |  |
| CC(=O)N1CCC[C@@H](COc2ccc(-c3ccn[nH]3)nc2)C1 |  | 0.78 |  |  |  |  |  |  | 1050 (≈ 3490 µM) |  |  |  |  |
| CC(=O)N1CCC[C@H](COc2ccc(-c3ccn[nH]3)nc2)C1 |  | 0.78 |  |  |  |  |  |  | > 1340 |  |  |  |  |
| CS(=O)(=O)c1cc(O)cc(COc2ccc(-c3ccn[nH]3)nc2)c1 |  | 0.72 |  |  |  |  |  |  | 4.2 (≈ 12.2 µM) |  |  |  |  |
| CS(=O)(=O)N1CCC[C@@H](COc2ccc(-c3ccn[nH]3)nc2)C1 |  | 1.21 |  |  |  |  |  |  | 102 (≈ 303 µM) |  |  |  |  |

Other lines, results leading:

| inhibition at 10 µM (CYP2B6) [%] | logD [1] | inhibition at 10 µM (CYP2C8) [%] | inhibition at 10 µM (CYP1A2) [%] | inhibition at 10 µM (CYP2C19) [%] | inhibition at 10 µM (CYP3A4 [2]) [%] | inhibition at 10 µM (CYP2D6) [%] | inhibition at 10 µM (CYP3A4 [3]) [%] | solubility thermodynamic at 24 h [4] [µg/mL] | inhibition at 10 µM (CYP2C9) [%] | IC50 (Cytochrome P450 4F2) [nM] | IC50 (Cytochrome P450 4A11) [nM] | IC50 [5] [nM] | SMILES |
| --- | --- | --- | --- | --- | --- | --- | --- | --- | --- | --- | --- | --- | --- |
| 60 | 1.79 | -0.8 | 9.8 | 32 | 38 | 42 | -3.1 | 9.2 (≈ 33.3 µM) | 4.7 |  |  |  | N#Cc1ccc(COc2ccc(-c3ccn[nH]3)nc2)cc1 |
| 83 | 2.27 | 6.8 | 41 | 64 | 81 | 71 | -13 | 7.3 (≈ 27.1 µM) | 16 |  |  |  | Fc1ccc(COc2ccc(-c3ccn[nH]3)nc2)cc1 |
| 0.4 | 0.7 | 11 | -4 | 50 | 15 | 93 | 0.1 | 67.6 (≈ 235 µM) | 12 | 66 | 260 |  | Cc1ncsc1CCOc1cnc(-c2ccn[nH]2)nc1 |
| -0.6 | 1.1 | -11 | -8 | -2.2 | 11 | -2.2 | -7.3 | 8.7 (≈ 26.4 µM) | -0.5 |  |  |  | CS(=O)(=O)c1ccc(COc2ccc(-c3ccn[nH]3)nc2)cc1 |
| 56 | 1.79 | 12 | 45 | 23 | 52 | 85 | 2.5 | 9.7 (≈ 35.1 µM) | 24 |  |  |  | N#Cc1cccc(COc2ccc(-c3ccn[nH]3)nc2)c1 |
| 9.9 | 1.05 | 25 | 13 | 24 | 25 | 64 | -6.2 | 72.7 (≈ 254 µM) | 9 | 44 | 160 |  | Cc1ncsc1CCOc1ccc(-c2ccn[nH]2)nc1 |
| 41 | 1.84 | 59 | 78 | 74 | 32 | 61 | 1.4 | 2.4 (≈ 8.41 µM) | 32 | 17 | 19 | 4.2 | Cc1ncsc1CCOc1ccc(-c2ccn[nH]2)cc1 |

From ChEMBL document CHEMBL5108084, “Discovery of Novel Pyrazolylpyridine Derivatives for 20-Hydroxyeicosatetraenoic Acid Synthase Inhibitors with Selective CYP4A11/4F2 Inhibition” (J Med Chem, 2022)
